Assay results: patent US20240158446A1, “CYCLIC COMPOUND HAVING SELECTIVE INHIBITORY ACTION ON KRAS OVER HRAS AND NRAS” (CHUGAI SEIYAKU KABUSHIKI KAISHA, priority 2021, published 2024)
Where two headings read alike, the source gives them in different places. *1 amine or outer side, *2 acyl side, *3 side chain or, on linkers, in order; H or OH if unused. Where a SMILES comes first, the peptide text is derived from it. Bridges are numbered along the chain shown (N, C = ends). [ ]: non-standard residue; d: D form. The star is where a group is joined. hPhe(3,5-F2-4-CF3) = N[C@@H](CCc1cc(F)c(C(F)(F)F)c(F)c1)C(=O)O; hPhe(3-Cl-4-CF3) = N[C@@H](CCc1ccc(C(F)(F)F)c(Cl)c1)C(=O)O; NPrPhe(4-CF3) = CCCN[C@@H](Cc1ccc(C(F)(F)F)cc1)C(=O)O; NMeGly(cPent) = CN[C@H](C(=O)O)C1CCCC1; X8 = C[C@@](N[*:1])(C(=O)[*:2])C1CC1; Hyp = O=C(O)[C@@H]1C[C@@H](O)CN1; NMeD = CN[C@@H](CC(=O)O)C(=O)O; NMeL = CN[C@@H](CC(C)C)C(=O)O; αMeV = CC(C)[C@](C)(N)C(=O)O; Pip = O=C(O)[C@@H]1CCCCN1; Morpholide = C1CN(*)CCO1; Ac5c = NC1(C(=O)O)CCCC1; Aze = O=C(O)[C@@H]1CCN1; Ac4c = NC1(C(=O)O)CCC1; Sar = CNCC(=O)O

What was measured:
[1] = molecular target: GDP-bound NRAS wild-type protein (Homo sapiens, UniProt P01111); assay: Binding to NRAS by surface plasmon resonance (SPR), Single Cycle Kinetics; conditions: for NRAS/KRAS (ratio of KD value with respect to NRAS to KD value with respect to KRAS) / NRAS/KRAS (ratio of KD value for NRAS to KD value for KRAS): GDP-bound NRAS wild-type protein vs GDP-bound KRAS wild-type protein
Sequence of GDP-bound NRAS wild-type protein (P01111 whole entry): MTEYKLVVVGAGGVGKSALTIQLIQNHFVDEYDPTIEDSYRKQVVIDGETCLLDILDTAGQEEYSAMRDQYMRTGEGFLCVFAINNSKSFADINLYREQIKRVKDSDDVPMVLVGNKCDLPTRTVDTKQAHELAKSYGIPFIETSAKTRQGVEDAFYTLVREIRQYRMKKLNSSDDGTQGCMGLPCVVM

[2] = molecular target: GDP-bound HRAS wild-type protein (Homo sapiens, UniProt P01112); assay: Binding to HRAS by surface plasmon resonance (SPR), Single Cycle Kinetics; conditions: for HRAS/KRAS (ratio of KD value with respect to HRAS to KD value with respect to KRAS) / HRAS/KRAS (ratio of KD value for HRAS to KD value for KRAS): GDP-bound HRAS wild-type protein vs GDP-bound KRAS wild-type protein
Sequence of GDP-bound HRAS wild-type protein (P01112 whole entry): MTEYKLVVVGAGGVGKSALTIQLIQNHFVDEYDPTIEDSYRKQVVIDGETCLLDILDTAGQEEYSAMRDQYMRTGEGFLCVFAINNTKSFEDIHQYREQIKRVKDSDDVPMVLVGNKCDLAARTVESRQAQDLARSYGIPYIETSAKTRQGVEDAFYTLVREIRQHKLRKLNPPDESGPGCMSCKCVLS

[3] = test system: human lung cancer strain NCI-H441;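 further: cell proliferation inhibition after four days measured by CellTiter-Glo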

SMILES	IC50 [3] [µM]	NRAS/KRAS (ratio of KD value for NRAS to KD value for KRAS) ([1]; SPR)	HRAS/KRAS (ratio of KD value for HRAS to KD value for KRAS) ([2]; SPR)	further results
CCO[C@@H]1C[C@H]2C(=O)NC3(CCC3)C(=O)N(C)[C@@H](C3CCCC3)C(=O)N(CCC3CCCC3)[C@H](C(=O)N3CCOCC3)CC(=O)N(C)[C@@H](CC(C)C)C(=O)N[C@@H]([C@@H](C)CC)C(=O)N(C)CC(=O)N(C)[C@H]3CCCCCN(C3=O)[C@@H](Cc3ccc(C(F)(F)F)cc3)C(=O)N(C)CC(=O)N[C@@H](CCc3cc(F)c(C(F)(F)F)c(F)c3)C(=O)N2C1 [PP0641]	> 1.3			NRAS/KRAS (ratio of KD value with respect to NRAS to KD value with respect to KRAS) ([1]; SPR): A (a compound having 10 or more and less than 20 is denoted as A); HRAS/KRAS (ratio of KD value with respect to HRAS to KD value with respect to KRAS) ([2]; SPR): A (a compound having 10 or more and less than 20 is denoted as A)
CCCN1C(=O)CN(C)C(=O)[C@@H]2CCN2C(=O)[C@H]([C@@H](C)CC)NC(=O)[C@H](CC(C)C)N(C)C(=O)C[C@@H](C(=O)N2CCOCC2)N(C)C(=O)[C@H](C2CCCC2)N(C)C(=O)C2(CCC2)NC(=O)[C@@H]2CCCN2C(=O)[C@H](CCc2ccc(C(F)(F)F)c(Cl)c2)NC(=O)CN(C)C(=O)[C@@H]1Cc1ccc(C(F)(F)F)cc1 [PP0402] ([NMeL]I[Aze][Sar][NPrPhe(4-CF3)][Sar][hPhe(3-Cl-4-CF3)]P[Ac4c][NMeGly(cPent)][NMeD]-Morpholide; lactam N-11)	0.0581	B (a compound having 3 or more and less than 10 is denoted as B)	C (A compound having a KD ratio of 0.1 or more and less than 3 is denoted as C)	
CCO[C@@H]1C[C@H]2C(=O)NC3(CCC3)C(=O)N(C)[C@@H](C3CCCC3)C(=O)N(C)[C@H](C(=O)N(CC)CC)CC(=O)N(C)[C@@H](CC(C)C)C(=O)N[C@@H]([C@@H](C)CC)C(=O)N(C)CC(=O)N(C)[C@H]3C/C=C\CCN(C3=O)[C@@H](Cc3ccc(C)cc3)C(=O)N(C)CC(=O)N[C@@H](CCc3ccc(C(F)(F)F)c(OC)c3)C(=O)N2C1 [PP1851]				NRAS/KRAS (KD ratio) ([1]; ratio of KD for GDP-bound NRAS wild-type protein to KD for KRAS, SPR): A (a compound having 10 or more and less than 20 is denoted as A); HRAS/KRAS (KD ratio) ([2]; ratio of KD for GDP-bound HRAS wild-type protein to KD for KRAS, SPR): A (a compound having 10 or more and less than 20 is denoted as A); IC50 ([3]; read-out: NCI-H441 IC50, NCI-H441 cell proliferation, 4 days, CellTiter-Glo): 0.165 µM
CCCN1C(=O)CN(C)C(=O)[C@@H]2CCN2C(=O)[C@H]([C@@H](C)CC)NC(=O)[C@H](CC(C)C)N(C)C(=O)C[C@@H](C(=O)N2CCOCC2)N(C)C(=O)[C@H](C2CCCC2)N(C)C(=O)[C@](C)(C(C)C)NC(=O)[C@@H]2CCCN2C(=O)[C@H](CCc2cc(F)c(C(F)(F)F)c(F)c2)NC(=O)CN(C)C(=O)[C@@H]1Cc1ccc(C(F)(F)F)cc1 [PP0773] ([NMeL]I[Aze][Sar][NPrPhe(4-CF3)][Sar][hPhe(3,5-F2-4-CF3)]P[αMeV][NMeGly(cPent)][NMeD]-Morpholide; lactam N-11)	0.17			NRAS/KRAS (ratio of KD value with respect to NRAS to KD value with respect to KRAS) ([1]; SPR): B (a compound having 3 or more and less than 10 is denoted as B); HRAS/KRAS (ratio of KD value with respect to HRAS to KD value with respect to KRAS) ([2]; SPR): B (a compound having 3 or more and less than 10 is denoted as B)
CC[C@H](C)[C@@H]1NC(=O)[C@H](CC(C)C)N(C)C(=O)C[C@@H](C(=O)N2CCOCC2)N(CC)C(=O)[C@H](C2CCCC2)N(C)C(=O)C2(CCC2)NC(=O)[C@@H]2CC(F)(F)CN2C(=O)[C@H](CCc2cc(F)c(C(F)(F)F)c(F)c2)NC(=O)CN(C)C(=O)[C@H](Cc2ccc(C(F)(F)F)cc2)N2CCCCC[C@@H](C2=O)N(C)C(=O)CN(C)C1=O [PP0954]	0.439	A (a compound having 10 or more and less than 20 is denoted as A)	A (a compound having 10 or more and less than 20 is denoted as A)	
CCCN1C(=O)CN(C)C(=O)[C@@H]2CCN2C(=O)[C@H]([C@@H](C)CC)NC(=O)[C@H](CC(C)C)N(C)C(=O)C[C@@H](C(=O)N2CCOCC2)N(C)C(=O)[C@H](C2CCCC2)N(C)C(=O)[C@](C)(C2CC2)NC(=O)[C@@H]2CCCN2C(=O)[C@H](CCc2cc(F)c(C(F)(F)F)c(F)c2)NC(=O)CN(C)C(=O)[C@@H]1Cc1ccc(C(F)(F)F)cc1 [PP0772] ([NMeL]I[Aze][Sar][NPrPhe(4-CF3)][Sar][hPhe(3,5-F2-4-CF3)]P[X8][NMeGly(cPent)][NMeD]-Morpholide; lactam N-11)	0.434			NRAS/KRAS (ratio of KD value with respect to NRAS to KD value with respect to KRAS) ([1]; SPR): B (a compound having 3 or more and less than 10 is denoted as B); HRAS/KRAS (ratio of KD value with respect to HRAS to KD value with respect to KRAS) ([2]; SPR): B (a compound having 3 or more and less than 10 is denoted as B)
CCCN1C(=O)[C@@H]2CCN2C(=O)[C@@H]2CCCCN2C(=O)[C@H]([C@@H](C)CC)NC(=O)[C@H](CC(C)C)N(C)C(=O)C[C@@H](C(=O)N2CCOCC2)N(C)C(=O)[C@H](C2CCCC2)N(C)C(=O)C2(CCCC2)NC(=O)[C@@H]2CCCN2C(=O)[C@H](CCc2ccc(C(F)(F)F)c(Cl)c2)NC(=O)CN(C)C(=O)[C@@H]1Cc1ccc(C(F)(F)F)cc1 [PP0077] ([NMeL]I[Pip][Aze][NPrPhe(4-CF3)][Sar][hPhe(3-Cl-4-CF3)]P[Ac5c][NMeGly(cPent)][NMeD]-Morpholide; lactam N-11)	0.0053	C (A compound having a KD ratio of 0.1 or more and less than 3 is denoted as C)	B (a compound having 3 or more and less than 10 is denoted as B)	
CC[C@H](C)[C@@H]1NC(=O)[C@H](CC(C)C)N(C)C(=O)C[C@@H](C(=O)N2CCOCC2)N(C)C(=O)[C@H](C2CCCC2)N(C)C(=O)C2(CCC2)NC(=O)[C@@H]2[C@H]3C[C@H]3CN2C(=O)[C@H](CCc2cc(F)c(C(F)(F)F)c(F)c2)NC(=O)CN(C)C(=O)[C@H](Cc2ccc(C(F)(F)F)cc2)N2CCCCC[C@@H](C2=O)N(C)C(=O)CN(C)C1=O [PP0819]	0.0757	A (a compound having 10 or more and less than 20 is denoted as A)	B (a compound having 3 or more and less than 10 is denoted as B)	
CCC[C@H]1C(=O)N[C@@H]([C@@H](C)CC)C(=O)N(C)CC(=O)N(C)[C@H]2C/C=C\CCN(C2=O)[C@@H](Cc2ccc(C)cc2)C(=O)N(C)CC(=O)N[C@@H](CCc2ccc3ccn(C)c3c2)C(=O)N2C[C@H](OCC)C[C@H]2C(=O)NC2(CC(C)(C)C2)C(=O)N(C)[C@@H](C(CC)CC)C(=O)N(C)[C@H](C(=O)N(C)C)CC(=O)N1C [PP2914]	0.311			NRAS/KRAS (ratio of KD value with respect to GDP-bound NRAS wild-type protein to KD value with respect to KRAS) ([1]; SPR KD ratio NRAS/KRAS, class symbols): AA (a compound having 20 or more is denoted as AA); HRAS/KRAS (ratio of KD value with respect to GDP-bound HRAS wild-type protein to KD value with respect to KRAS) ([2]; SPR KD ratio HRAS/KRAS, class symbols): A (a compound having 10 or more and less than 20 is denoted as A)
CC[C@H](C)[C@@H]1NC(=O)[C@H](CC)N(C)C(=O)C[C@@H](C(=O)N2CCOCC2)N(C)C(=O)[C@H](C2CCCC2)N(C)C(=O)C2(CCCC2)NC(=O)[C@@H]2CCCN2C(=O)[C@H](CCc2ccc(C(F)(F)F)c(Cl)c2)NC(=O)CN(C)C(=O)[C@H](Cc2ccc(F)cc2)N2CCCCC[C@@H](C2=O)N(C)C(=O)CN(C)C1=O [PP0959]	0.156	B (a compound having 3 or more and less than 10 is denoted as B)	B (a compound having 3 or more and less than 10 is denoted as B)	

More lines, main results first:

IC50 [3] [µM]	SMILES	NRAS/KRAS (ratio of KD value for NRAS to KD value for KRAS) ([1]; SPR)	HRAS/KRAS (ratio of KD value for HRAS to KD value for KRAS) ([2]; SPR)	further results
0.0634	CCC[C@H]1C(=O)N[C@@H]([C@@H](C)CC)C(=O)N(C)CC(=O)N(C)[C@H]2C/C=C\CCN(C2=O)[C@@H](Cc2ccc(C)cc2)C(=O)N(C)CC(=O)N[C@@H](CCc2ccc(C(F)(F)F)c(OC)c2)C(=O)N2C[C@H](OCC)C[C@H]2C(=O)NC2(CC(C)(C)C2)C(=O)N(C)[C@@H](CC(F)(F)F)C(=O)N(C)[C@H](C(=O)N(C)C)CC(=O)N1C [PP3007]	A (a compound having 10 or more and less than 20 is denoted as A)	A (a compound having 10 or more and less than 20 is denoted as A)	
0.11	CCCN1C(=O)CN(C)C(=O)[C@@H]2CCN2C(=O)[C@H]([C@@H](C)CC)NC(=O)[C@H](CC(C)C)N(C)C(=O)C[C@@H](C(=O)N(C)C)NC(=O)[C@H](C2CCCC2)N(C)C(=O)C2(CCC2)NC(=O)[C@@H]2C[C@@H](OCC)CN2C(=O)[C@H](CCc2ccc(C(F)(F)F)c(Cl)c2)NC(=O)CN(C)C(=O)[C@@H]1Cc1ccc(C(F)(F)F)cc1 [PP0378] ([NMeL]I[Aze][Sar][NPrPhe(4-CF3)][Sar][hPhe(3-Cl-4-CF3)][Hyp](Et)[Ac4c][NMeGly(cPent)]D-NMe2; lactam N-11)	B (a compound having 3 or more and less than 10 is denoted as B)	B (a compound having 3 or more and less than 10 is denoted as B)	
0.0057	CCO[C@@H]1C[C@H]2C(=O)NC3(CC(C)(C)C3)C(=O)N(C)[C@@H](C3CCCC3)C(=O)N(C)[C@H](C(=O)N(C)C)CC(=O)N(C)[C@@H](CC(C)C)C(=O)N[C@@H]([C@@H](C)CC)C(=O)N(C3CC3)CC(=O)N(C)[C@H]3C/C=C\CCN(C3=O)[C@@H](Cc3ccc(C)cc3)C(=O)N(C)CC(=O)N[C@@H](CCc3cc(F)c(C(F)(F)F)c(F)c3)C(=O)N2C1 [PP2109]	A (a compound having 10 or more and less than 20 is denoted as A)	A (a compound having 10 or more and less than 20 is denoted as A)	
